Measured values reported in ChEMBL document CHEMBL3784925, “Discovery of a New Inhibitor of Myeloid Differentiation 2 from Cinnamamide Derivatives with Anti-Inflammatory Activity in Sepsis and Acute Lung Injury” (J Med Chem, 2016).
Activity calls are given as the source filed them. The calls are words filed in the database; no cut-off is given here.

Key:
[1] = Cytotoxicity against C57BL/6 mouse primary peritoneal macrophages assessed as reduction in cell viability at 10 uM after 24 hrs by MTT assay; type: cell-based; settings: peritoneal macrophage cell
[2] = molecular target: T1, Lymphocyte antigen 96 (Mus musculus) (UniProt Q9JHF9); experiment: Inhibition of MD2/TLR4 complex formation in C57BL/6 mouse primary peritoneal macrophages assessed as reversal of LPS-induced […] at 10 uM preincubated for 30 mins followed by LPS addition measured after 1 hr by DAPI staining based fluorescence microscopic analysis
T1 sequence (whole entry): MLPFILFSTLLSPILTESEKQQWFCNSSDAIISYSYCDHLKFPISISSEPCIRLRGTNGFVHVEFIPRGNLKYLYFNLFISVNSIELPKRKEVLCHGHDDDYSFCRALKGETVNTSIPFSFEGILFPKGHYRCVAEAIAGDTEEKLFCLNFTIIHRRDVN

| Structure (SMILES) | Activity [1] | inhibition [2] |
| --- | --- | --- |
| O=C(/C=C/c1cccc(Cl)c1Cl)NCc1ccccc1 | Non-toxic | – |
| COc1ccc(CCNC(=O)/C=C/c2cccc(Cl)c2Cl)cc1 | Non-toxic | – |
| COc1nccc(-c2c(-c3ccc(F)cc3)ncn2[C@H]2CC[C@H](O)CC2)n1 | – | inactive |
| O=C(/C=C/c1cccc(Cl)c1Cl)NCCNC(=O)/C=C/c1cccc(Cl)c1Cl | Non-toxic | – |
| COc1cccc(-c2cc(=O)c3ccccc3o2)c1N | – | inactive |
| COc1cc(/C=C/C(=O)NCc2ccc(F)cc2)ccc1O | Non-toxic | – |
| COc1cc(/C=C/C(=O)NCc2ccccc2)ccc1O | Non-toxic | – |
| COc1ccc(/C=C/C(=O)NCc2ccc(F)cc2)c(OC)c1 | Non-toxic | – |
| COc1cc(/C=C/C(=O)NCc2ccc(Cl)cc2)ccc1O | Non-toxic | – |
| COc1ccc(/C=C/C(=O)NCc2ccc(Cl)cc2)c(OC)c1 | Non-toxic | – |
| O=C(/C=C/c1cccc(Cl)c1Cl)NCCCCCCNC(=O)/C=C/c1cccc(Cl)c1Cl | Non-toxic | – |
| COc1cc(/C=C/C(=O)NCc2ccc(OC)c(OC)c2)ccc1O | Non-toxic | – |
| COc1ccc(/C=C/C(=O)N2CCOCC2)c(OC)c1 | Non-toxic | – |
| O=C(/C=C/c1cccc(Cl)c1Cl)NCCCc1ccccc1 | Non-toxic | – |
| COc1cc(/C=C/C(=O)N2CCOCC2)ccc1O | Non-toxic | – |
| COc1cc(/C=C/C(=O)NCCCCCCNC(=O)/C=C/c2ccc(O)c(OC)c2)ccc1O | Non-toxic | – |
| COc1ccc(/C=C/C(=O)NCCCCCCNC(=O)/C=C/c2ccc(OC)cc2OC)c(OC)c1 | Non-toxic | – |
